What is called MRT is the average time that molecules of a dose stay in the body. As usually defined, the Tmax is the time from dosing to the highest level. What is called IC50 is the concentration that inhibits the measured activity by half.

Series [1] in a line: Pharmacokinetic (PK) assay in mice. The format is in vivo. Conditions: male, Balb/c, mouse, plasma, po, single intragastric 5 mg/kg; for AUC(0-t): read-out: Area under curve AUC0-t; for AUC(0-inf): read-out: Area under curve AUC0-∞; for half-life: read-out: Half-life t1/2(h) (converted); for MRT: read-out: Mean residence time MRT; for Tmax: read-out: Peak time tmax; for Cmax: read-out: Plasma concentration Cmax. On the procedure:
The pharmacokinetic assay of the preferred compounds of the examples of the present invention in mice was carried out in Balb/c male mice (Shanghai Jiesijie Laboratory Animal Co., LTD). • Administration mode: single intragastric administration. • Administration dose: 5 mg/10 ml/kg (body weight). • Formulation: the compound was dissolved in 0.5% CMC-Na by ultrasound to obtain a clear solution or homogeneous suspension. • Sampling points: 0.5, 1, 2, 4, 6, 8 and 24 hours after administration. • Sample process: • 1) 0.1 mL of blood was taken from the orbit, placed in a K2-EDTA tube, and centrifuged for 5 to 20 minutes at room temperature at 1000 to 3000×g to separate the plasma, which was then stored at −80° C. • 2) 160 uL of acetonitrile was added to 40 uL of plasma sample for precipitation, and then the mixture was centrifuged for 5 to 20 minutes at 500 to 2000×g. • 3) 100 uL of processed supernatant was taken and analyzed by LC/MS/MS assay to determine the concentration of the test compound. • LC-MS/MS assay: • Liquid chromatography condition: Shimadzu LC-20AD pump • Mass spectrometry condition: AB Sciex API 4000 mass spectrometer • Chromatographic column: phenomenex Gemiu 5 μm C18 50×4.6 mm • Mobile phase: solution A was 0.1% aqueous formic acid solution, and solution B was acetonitrile • Flow rate: 0.8 mL/min • Elution time: 0-4 minutes gradient elution • Pharmacokinetics: […]
The main parameters were calculated using WinNonlin 6.1.

In the next series the target is T1, PI3Kγ (Homo sapiens, UniProt P48736).
T1 construct: purchased Thermofisher PV4786
T1 sequence (P48736 whole entry): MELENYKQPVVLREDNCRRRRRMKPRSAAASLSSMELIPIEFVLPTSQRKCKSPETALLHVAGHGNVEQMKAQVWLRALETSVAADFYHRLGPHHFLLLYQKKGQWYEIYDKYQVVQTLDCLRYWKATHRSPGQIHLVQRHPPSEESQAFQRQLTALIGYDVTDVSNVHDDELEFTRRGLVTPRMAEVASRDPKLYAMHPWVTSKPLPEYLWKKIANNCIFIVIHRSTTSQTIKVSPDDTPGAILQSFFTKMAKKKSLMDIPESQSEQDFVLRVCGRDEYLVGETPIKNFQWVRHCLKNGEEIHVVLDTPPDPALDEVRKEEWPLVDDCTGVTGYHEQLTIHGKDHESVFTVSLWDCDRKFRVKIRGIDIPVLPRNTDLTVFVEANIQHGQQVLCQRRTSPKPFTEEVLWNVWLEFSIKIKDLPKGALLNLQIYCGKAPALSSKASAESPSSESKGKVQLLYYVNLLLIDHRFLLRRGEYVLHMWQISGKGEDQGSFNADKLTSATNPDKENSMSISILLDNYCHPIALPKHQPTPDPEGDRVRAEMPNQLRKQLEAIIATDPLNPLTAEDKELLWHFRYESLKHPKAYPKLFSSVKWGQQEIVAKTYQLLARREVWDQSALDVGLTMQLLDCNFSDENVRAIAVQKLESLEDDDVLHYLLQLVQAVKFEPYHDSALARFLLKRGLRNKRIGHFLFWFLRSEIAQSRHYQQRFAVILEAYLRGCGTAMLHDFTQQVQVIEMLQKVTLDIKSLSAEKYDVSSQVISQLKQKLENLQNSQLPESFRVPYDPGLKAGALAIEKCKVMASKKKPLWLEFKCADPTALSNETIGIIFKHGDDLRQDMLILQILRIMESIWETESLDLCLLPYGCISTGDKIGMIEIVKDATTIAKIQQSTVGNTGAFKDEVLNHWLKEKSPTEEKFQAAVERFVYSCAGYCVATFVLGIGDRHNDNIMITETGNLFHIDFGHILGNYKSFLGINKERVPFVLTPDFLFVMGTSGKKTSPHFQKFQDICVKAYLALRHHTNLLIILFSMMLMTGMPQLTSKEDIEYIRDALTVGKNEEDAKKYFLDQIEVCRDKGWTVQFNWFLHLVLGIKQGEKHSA
In words: ADP-Glo lipid kinase assay, PI3Kγ kinase activity. It counts as biochemical. Conditions: 0.4 nM enzyme, 120 min, 50 μM ATP. On the procedure:
(§1) Experimental method: Promega's ADP-Glo lipid kinase assay method (Promega #V9102) was applied in this experiment. Lipid kinase PI3Kα/β/γ/δ catalyzed the generation of ADP from ATP in the presence of the substrate PIP2: 3PS and ATP. The lipid kinase activity was characterized by measuring the ADP content in the reaction, and the half inhibitory concentration IC50 of the compound on inhibiting PI3Kα/β/γ/δ kinase activity was thus obtained.
(§2) The kinase reaction was carried out in a white 384-well plate (Perkin Elmer #6007299). 2 μL of the compound solution of different concentrations diluted with ddH2O containing 1% DMSO was added to each well. 2 μL of ddH2O containing 1% DMSO was added to the positive control well. 2 μL of 0.1-2 nM PI3K kinase solution diluted with 5× kinase buffer (HEPES 250 mM, MgCl2 15 mM, NaCl 250 mM, BSA 0.05%) was added to each well. 2 μL of 5× kinase buffer was added to the negative control well. 4 μL of 50 μM substrate PIP2: 3PS (Promega #V1701) formulated with 10× Dilution buffer and ddH2O was added to all wells. Finally, 2 μL of […] ATP solution diluted with water was added to start the reaction. After the reaction was carried out at room temperature for 90 to 120 minutes, 10 μL of ADP-Glo Reagent (containing 10 mM MgCl2) was added to each well, and reacted at room temperature for 60 minutes to remove excess ATP in the reaction. 20 μL of Kinase Detection Reagent was added to each well, and reacted at room temperature in the dark for 20 minutes. The chemiluminescence value was measured by the BioTek Synergy H1 microplate reader.
(§3) The percentage inhibition data of the compound-treated well was calculated through the positive control well (DMSO control well) and negative control well (no kinase added) on the plate {% inhibition rate=100−[(test compound value−negative control value)]/(positive control value−negative control value)×100}. The IC50 value was calculated by fitting the data of different concentrations and corresponding percentage inhibition rates to a four-parameter nonlinear logic formula with GraphPad prism.
In general terms: ADP-Glo first removes unused ATP, then detects ADP through luciferase.

Another series has as its target T2, PI3Kα (Homo sapiens, UniProt P42336).
T2 construct: purchased Promega V1721
In words: ADP-Glo lipid kinase assay, PI3Kα kinase activity. The format is biochemical. Conditions: for IC50: ADP-Glo, 0.1 nM enzyme, 120 min, 50 μM ATP. On the procedure:
as §1, §2, §3

The next series addresses T3, PI3Kδ (Homo sapiens, UniProt O00329).
T3 construct: purchased Carna 11-103
In words: ADP-Glo lipid kinase assay, PI3Kδ kinase activity. The format is biochemical. Conditions: 0.1 nM enzyme, 90 min, 100 μM ATP. On the procedure:
as §1, §2, §3

The target of the next series is T4, PI3Kβ (Homo sapiens, UniProt P42338).
T4 construct: purchased Carna 11-102
T4 sequence (P42338 whole entry): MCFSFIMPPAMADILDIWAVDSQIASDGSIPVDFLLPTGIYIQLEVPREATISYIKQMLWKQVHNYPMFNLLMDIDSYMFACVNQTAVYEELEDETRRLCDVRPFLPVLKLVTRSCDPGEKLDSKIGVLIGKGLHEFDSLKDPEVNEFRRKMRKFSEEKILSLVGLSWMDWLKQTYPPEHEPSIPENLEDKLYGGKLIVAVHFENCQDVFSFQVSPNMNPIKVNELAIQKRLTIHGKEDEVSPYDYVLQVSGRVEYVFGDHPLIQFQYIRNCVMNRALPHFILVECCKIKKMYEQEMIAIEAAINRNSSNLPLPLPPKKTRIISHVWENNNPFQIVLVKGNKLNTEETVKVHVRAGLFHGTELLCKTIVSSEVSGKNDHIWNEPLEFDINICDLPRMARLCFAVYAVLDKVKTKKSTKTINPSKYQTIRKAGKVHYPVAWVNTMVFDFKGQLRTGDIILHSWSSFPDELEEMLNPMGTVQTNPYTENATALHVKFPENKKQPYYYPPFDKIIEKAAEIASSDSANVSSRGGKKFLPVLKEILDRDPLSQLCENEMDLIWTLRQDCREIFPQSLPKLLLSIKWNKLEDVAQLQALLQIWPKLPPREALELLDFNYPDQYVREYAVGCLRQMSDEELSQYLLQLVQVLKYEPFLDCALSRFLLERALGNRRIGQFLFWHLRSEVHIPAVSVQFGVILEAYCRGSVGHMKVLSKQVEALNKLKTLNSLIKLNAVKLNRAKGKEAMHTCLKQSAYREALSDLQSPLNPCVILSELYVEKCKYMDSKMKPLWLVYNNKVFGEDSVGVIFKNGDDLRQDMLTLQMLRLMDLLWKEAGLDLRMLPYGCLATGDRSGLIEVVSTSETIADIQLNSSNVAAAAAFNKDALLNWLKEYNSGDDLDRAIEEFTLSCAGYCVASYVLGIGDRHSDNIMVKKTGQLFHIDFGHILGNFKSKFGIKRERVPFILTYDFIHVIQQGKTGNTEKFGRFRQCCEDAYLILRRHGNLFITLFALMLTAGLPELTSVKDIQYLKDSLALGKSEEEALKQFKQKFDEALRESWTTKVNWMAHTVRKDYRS
T4 sequence (P27986 whole entry partner): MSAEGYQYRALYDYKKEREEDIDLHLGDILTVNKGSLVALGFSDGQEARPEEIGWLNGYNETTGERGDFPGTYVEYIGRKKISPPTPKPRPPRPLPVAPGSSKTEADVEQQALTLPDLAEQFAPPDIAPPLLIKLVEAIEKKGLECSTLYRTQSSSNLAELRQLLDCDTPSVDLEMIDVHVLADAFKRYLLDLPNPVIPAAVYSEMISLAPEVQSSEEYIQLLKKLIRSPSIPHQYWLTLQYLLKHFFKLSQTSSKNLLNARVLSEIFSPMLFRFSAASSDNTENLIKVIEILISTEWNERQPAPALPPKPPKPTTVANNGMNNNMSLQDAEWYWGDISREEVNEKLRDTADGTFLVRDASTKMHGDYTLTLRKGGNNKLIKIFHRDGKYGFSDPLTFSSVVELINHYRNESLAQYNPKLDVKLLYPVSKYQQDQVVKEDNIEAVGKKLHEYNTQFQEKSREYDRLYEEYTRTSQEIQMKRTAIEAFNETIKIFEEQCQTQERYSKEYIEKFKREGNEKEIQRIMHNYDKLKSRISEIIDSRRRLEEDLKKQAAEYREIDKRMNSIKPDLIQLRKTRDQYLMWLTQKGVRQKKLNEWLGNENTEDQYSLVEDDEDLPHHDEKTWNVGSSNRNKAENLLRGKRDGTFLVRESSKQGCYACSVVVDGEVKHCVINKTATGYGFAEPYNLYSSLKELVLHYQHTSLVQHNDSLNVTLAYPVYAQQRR
In words: ADP-Glo lipid kinase assay, PI3Kβ kinase activity. It counts as biochemical. Conditions: 0.4 nM enzyme, 90 min, 100 μM ATP. On the procedure: as §1, §2, §3

T3 sequence (O00329 whole entry): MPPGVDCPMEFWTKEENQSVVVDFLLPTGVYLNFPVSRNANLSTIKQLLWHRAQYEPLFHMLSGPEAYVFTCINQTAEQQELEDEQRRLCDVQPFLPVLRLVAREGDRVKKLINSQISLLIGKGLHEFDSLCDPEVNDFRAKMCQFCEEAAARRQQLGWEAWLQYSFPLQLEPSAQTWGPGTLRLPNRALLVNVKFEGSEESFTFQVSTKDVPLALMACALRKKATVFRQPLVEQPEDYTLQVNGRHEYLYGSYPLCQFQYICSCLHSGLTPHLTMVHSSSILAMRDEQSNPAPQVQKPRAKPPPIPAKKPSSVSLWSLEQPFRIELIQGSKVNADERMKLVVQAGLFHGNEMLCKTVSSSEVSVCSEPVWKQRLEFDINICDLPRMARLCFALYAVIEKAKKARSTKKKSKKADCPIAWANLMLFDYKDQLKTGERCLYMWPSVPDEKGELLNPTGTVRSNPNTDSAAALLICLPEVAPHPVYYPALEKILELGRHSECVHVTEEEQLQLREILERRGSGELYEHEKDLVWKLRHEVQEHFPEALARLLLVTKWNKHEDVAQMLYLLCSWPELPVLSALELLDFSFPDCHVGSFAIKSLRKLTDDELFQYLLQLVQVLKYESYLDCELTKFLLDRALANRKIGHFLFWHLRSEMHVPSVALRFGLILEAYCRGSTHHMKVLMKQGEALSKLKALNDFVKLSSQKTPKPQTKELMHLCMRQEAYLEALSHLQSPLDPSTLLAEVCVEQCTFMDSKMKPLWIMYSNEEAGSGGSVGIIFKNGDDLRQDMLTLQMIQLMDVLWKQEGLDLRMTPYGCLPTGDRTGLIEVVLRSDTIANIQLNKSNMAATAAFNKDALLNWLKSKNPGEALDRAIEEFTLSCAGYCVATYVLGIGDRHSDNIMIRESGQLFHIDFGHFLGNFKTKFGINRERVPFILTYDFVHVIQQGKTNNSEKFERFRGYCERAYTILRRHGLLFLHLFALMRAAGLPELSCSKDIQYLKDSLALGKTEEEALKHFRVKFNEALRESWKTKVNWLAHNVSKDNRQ
T3 sequence (P27986 whole entry partner): as the sequence (P27986 whole entry partner) above
T2 sequence (P42336 whole entry): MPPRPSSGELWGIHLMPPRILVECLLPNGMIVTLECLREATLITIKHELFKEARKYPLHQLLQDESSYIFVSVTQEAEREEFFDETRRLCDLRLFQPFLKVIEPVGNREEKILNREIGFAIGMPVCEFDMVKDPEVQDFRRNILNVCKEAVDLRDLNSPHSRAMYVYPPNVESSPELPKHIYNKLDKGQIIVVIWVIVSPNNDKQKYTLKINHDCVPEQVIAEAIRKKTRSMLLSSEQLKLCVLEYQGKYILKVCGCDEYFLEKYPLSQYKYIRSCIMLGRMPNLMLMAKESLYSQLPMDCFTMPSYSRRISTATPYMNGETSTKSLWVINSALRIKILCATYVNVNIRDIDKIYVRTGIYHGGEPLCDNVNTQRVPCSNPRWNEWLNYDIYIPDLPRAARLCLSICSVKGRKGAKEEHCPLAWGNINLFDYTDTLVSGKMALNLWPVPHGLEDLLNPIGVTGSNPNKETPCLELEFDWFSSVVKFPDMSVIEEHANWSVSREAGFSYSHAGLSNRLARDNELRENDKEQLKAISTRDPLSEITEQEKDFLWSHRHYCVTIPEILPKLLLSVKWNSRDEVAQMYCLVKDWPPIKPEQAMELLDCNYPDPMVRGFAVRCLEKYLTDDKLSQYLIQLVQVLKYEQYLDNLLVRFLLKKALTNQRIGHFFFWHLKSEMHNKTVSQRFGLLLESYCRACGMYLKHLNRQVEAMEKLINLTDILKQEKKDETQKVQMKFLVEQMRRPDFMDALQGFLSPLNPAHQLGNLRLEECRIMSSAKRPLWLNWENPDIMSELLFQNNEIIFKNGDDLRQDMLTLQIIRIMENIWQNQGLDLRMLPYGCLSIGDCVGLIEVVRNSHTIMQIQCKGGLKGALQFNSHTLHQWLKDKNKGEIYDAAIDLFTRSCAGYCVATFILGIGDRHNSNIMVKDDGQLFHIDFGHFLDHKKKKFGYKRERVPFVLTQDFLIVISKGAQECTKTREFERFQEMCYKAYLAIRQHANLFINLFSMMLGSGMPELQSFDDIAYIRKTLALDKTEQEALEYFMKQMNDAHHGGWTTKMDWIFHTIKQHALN
T2 sequence (P27986 whole entry partner): as the sequence (P27986 whole entry partner) above

On to `C[C@H](Nc1ccc2c(c1)OCCn1cc(N3C(=O)N(C)C[C@H]3C(F)F)nc1-2)C(N)=O` [Example 53, (S)-2-((2-((S)-5-(difluoromethyl)-3-methyl-2-oxoimidazolidin-1-yl)-5,6-dihydrobenzo[f]imidazo[1,2-d][1,4]oxazepin-9-yl)amino)propanamide], for which, in series [1], the AUC(0-t) was 1.28 µg·h/mL, the AUC(0-inf) came out at 1.29 µg·h/mL, the half-life is 0.8 h and the mean residence time MRT came to 1.2 h. Moreover, in series [1], the Tmax turned out to be 0.5 h and the Cmax was 1.09 µg/mL. Further, the concentration for half-maximal inhibition (IC50) at PI3Kγ came to 0.402 µM. In addition, on PI3Kα, the concentration for half-maximal inhibition (IC50) was determined as 0.005 µM. On PI3Kα (ratio of IC50 PI3Kγ to IC50 PI3Kα), the “Selectivity of PI3Kα vs PI3Kγ” value amounted to 80. Further, the IC50 at PI3Kδ is 0.373 µM. Moreover, the IC50 at PI3Kβ came to 6.19 µM.
As to `C[C@H](Nc1ccc2c(c1)OCCn1cc(N3C(=O)O[C@H](C)[C@H]3C(F)F)nc1-2)C(N)=O` [Example 54, (S)-2-((2-((4S,5R)-4-(difluoromethyl)-5-methyl-2-oxooxazolidin-3-yl)-5,6-dihydrobenzo[f]imidazo[1,2-d][1,4]oxazepin-9-yl)amino)propanamide], in series [1], the AUC(0-t) was 1.56 µg·h/mL, the AUC(0-inf) came out at 1.61 µg·h/mL, the half-life was 1.8 h and the MRT came out at 2 h. Besides, in series [1], the Tmax worked out at 1 h and the Cmax was found to be 0.832 µg/mL. Also, on PI3Kγ, the 50% inhibitory concentration (IC50) turned out to be 0.481 µM. Besides, the IC50 at PI3Kα worked out at 0.0012 µM. Moreover, the IC50 on PI3Kδ was determined as 0.336 µM. Further, at PI3Kβ, the IC50 worked out at 1.8 µM.
Regarding `C[C@H](Nc1ccc2c(c1F)OCCn1cc(N3C(=O)OC[C@H]3C(F)F)nc1-2)C(N)=O` [Example 77, (S)-2-((2-((S)-4-(Difluoromethyl)-2-oxooxazolidin-3-yl)-8-fluoro-5,6-dihydrobenzo[f]imidazo[1,2-d][1,4]oxazepin-9-yl)amino)propanamide], in series [1], the AUC(0-t) stood at 4.09 µg·h/mL, the AUC(0-inf) was 4.12 µg·h/mL, the half-life was 1.2 h and the mean residence time MRT is 1.7 h. Besides, in series [1], the Tmax was 0.5 h and the Cmax came out at 2.3 µg/mL. On PI3Kγ, the 50% inhibitory concentration (IC50) is 0.45 µM. Moreover, at PI3Kα, the IC50 was 0.0052 µM. Further, the half-inhibitory concentration (IC50) at PI3Kδ amounted to 0.306 µM. For the same compound, the IC50 on PI3Kβ amounted to 0.924 µM.
On to `C[C@H](Nc1ccc2c(c1F)OCCn1cc(N3C(=O)SC[C@H]3C(F)F)nc1-2)C(N)=O` [Example 108, (S)-2-((2-((R)-4-(difluoromethyl)-2-oxothiazolidin-3-yl)-8-fluoro-5,6-dihydrobenzo[f]imidazo[1,2-d][1,4]oxazepin-9-yl)amino)propanamide], for which, in series [1], the AUC(0-t) is 4.24 µg·h/mL, the AUC(0-inf) came out at 4.24 µg·h/mL, the half-life was 2 h and the mean residence time (MRT) amounted to 3.4 h. Further, in series [1], the Tmax is 0.5 h and the Cmax worked out at 1.23 µg/mL. In addition, at PI3Kγ, the 50% inhibitory concentration (IC50) is 0.247 µM. Further, the half-inhibitory concentration (IC50) at PI3Kα amounted to 0.0024 µM. Also, at PI3Kδ, the IC50 stood at 0.194 µM. For the same compound, the half-maximal inhibitory concentration (IC50) at PI3Kβ was 0.472 µM.
As for `COC[C@H](Nc1ccc2c(c1)OCCn1cc(N3C(=O)SC[C@H]3C(F)F)nc1-2)C(N)=O` [Example 110, (S)-2-((2-((R)-4-(difluoromethyl)-2-oxothiazolidin-3-yl)-5,6-dihydrobenzo[f]imidazo[1,2-d][1,4]oxazepin-9-yl)amino)-3-methoxypropanamide], in series [1], the AUC(0-t) is 13.7 µg·h/mL, the AUC(0-inf) was 13.7 µg·h/mL, the half-life was 2.8 h and the mean residence time (MRT) came to 3.7 h. In series [1], the Tmax came out at 0.5 h and the Cmax amounted to 4.02 µg/mL. The IC50 on PI3Kγ came to 0.376 µM. Besides, the IC50 on PI3Kα was found to be 0.001 µM. The 50% inhibitory concentration (IC50) at PI3Kδ worked out at 0.139 µM. On PI3Kβ, the IC50 came out at 0.754 µM.
`NC(=O)[C@@H]1CCCN1c1ccc2c(c1)OCCn1cc(N3C(=O)SC[C@H]3C(F)F)nc1-2` [Example 111, (S)-1-(2-((R)-4-(difluoromethyl)-2-oxothiazolidin-3-yl)-5,6-dihydrobenzo[f]imidazo[1,2-d][1,4]oxazepin-9-yl)pyrrolidine-2-carboxamide]: in series [1], the AUC(0-t) was determined as 1.74 µg·h/mL, the AUC(0-inf) was 1.74 µg·h/mL, the half-life was 2.8 h and the mean residence time (MRT) worked out at 3.9 h. Moreover, in series [1], the Tmax was found to be 0.5 h and the Cmax amounted to 0.466 µg/mL. In addition, the half-inhibitory concentration (IC50) at PI3Kγ was found to be 0.736 µM. Moreover, the IC50 at PI3Kα was 0.0029 µM. On PI3Kδ, the 50% inhibitory concentration (IC50) was found to be 0.125 µM. For the same compound, the IC50 at PI3Kβ was found to be 1.23 µM.
